PubChem BioAssay (NCI)
Where “and” joins values, the source holds several entries; their conditions need not be identical. Identical values can stand only once.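 Where inhibition never reached the appropriate level, the endpoint shown equals the highest concentration tested. Otherwise, values were interpolated linearly from a five-concentration, 48-hour dose response in 96-well plates. At the GI50, growth is halved. Definition used: TGI = concentration required for complete inhibition of growth.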

Key:
Assay in all cases: NCI anticancer screen, dose series, 48 h
U251 CNS = tested on: U251 CNS
OVCAR-4 ovarian = tested on: OVCAR-4 ovarian
UACC-62 melanoma = tested on: UACC-62 melanoma
OVCAR-3 ovarian = tested on: OVCAR-3 ovarian
SF-295 CNS = tested on: SF-295 CNS
LOX IMVI melanoma = tested on: LOX IMVI melanoma
HOP-62 NSCLC = tested on: HOP-62 NSCLC
SK-OV-3 ovarian = tested on: SK-OV-3 ovarian
MDA-MB-231 breast = tested on: MDA-MB-231 breast
MDA-MB-435 = tested on: MDA-MB-435

| Structure (SMILES) | TGI (U251 CNS) [µM] | TGI (OVCAR-4 ovarian) [µM] | TGI (UACC-62 melanoma) [µM] | TGI (OVCAR-3 ovarian) [µM] | TGI (SF-295 CNS) [µM] | TGI (LOX IMVI melanoma) [µM] | TGI (HOP-62 NSCLC) [µM] | TGI (SK-OV-3 ovarian) | GI50 (U251 CNS) [µM] | GI50 (OVCAR-4 ovarian) [µM] | GI50 (UACC-62 melanoma) [µM] | GI50 (OVCAR-3 ovarian) [µM] | GI50 (MDA-MB-231 breast) | TGI (MDA-MB-231 breast) | GI50 (SF-295 CNS) [µM] | GI50 (LOX IMVI melanoma) [µM] | GI50 (MDA-MB-435) | TGI (MDA-MB-435) [µM] | GI50 (HOP-62 NSCLC) [µM] | GI50 (SK-OV-3 ovarian) [µM] |
| --- | --- | --- | --- | --- | --- | --- | --- | --- | --- | --- | --- | --- | --- | --- | --- | --- | --- | --- | --- | --- |
| COc1cc2c(cc1OC)[C@H]1C(COC(=O)c3ccccc3)CSC(=Nc3ccccc3)N1CC2 (stereo partly specified) | > 100 | > 100 | > 100 | > 100 | > 100 | > 100 | > 100 | > 100 µM |  |  |  |  |  |  |  |  |  |  |  |  |
| CCCCCCCCCCCCOC1C(C(COC2OC(C3COC(C)(C)O3)C3OC(C)(C)OC23)NC(=O)NS(=O)(=O)c2ccccc2)OC2OC(C)(C)OC21 (stereo unspecified) | 9.77 | 66.5 | 13.7 | 8.39 | 16.6 | 19.7 | 14.5 | 28.1 µM | 3.14 | 8.23 | 3.27 | 2.78 | 9.94 µM | 24.3 µM | 3.52 | 5.22 | 4.6 µM | 21.5 | 4.34 | 13.8 |
| NCCN.NCCN.O=C([O-])CCl.O=C([O-])CCl.[Co+3].[O-][Cl+3]([O-])([O-])[O-] | > 100 | > 100 | > 100 | > 100 | > 100 | > 100 | > 100 | > 100 µM | > 100 | > 100 | > 100 | > 100 |  |  | > 100 | > 100 |  |  | > 100 | > 100 |
| O=S(=O)(c1cccc2c(Cl)cccc12)N1CCCNCC1 | 27.7 | 24.3 | 26.5 | 29.4 | 34.5 | 26.3 | 23.3 | 29.1 µM | 14.6 | 11.2 | 13.6 | 14.6 | 5.49 µM | 19.3 µM | 17.7 | 13.4 | 14.9 µM | 28.6 | 11.2 | 15.7 |
| CN1C(=O)C(CC(=O)O)NC1=S (stereo unspecified) | > 100 |  | > 100 | > 100 | > 100 | > 100 | > 100 | > 100 µM |  |  |  |  |  | > 100 µM |  |  |  | > 100 |  |  |
| CC(C)c1c(O)ccc2c1CCC1C(C)(C)CCCC21C (stereo unspecified) | 33.2 | 32.9 | 28.9 | 34.1 | 32.5 | 31.1 |  | 33.4 µM |  |  |  |  |  | 36.5 µM |  |  |  | 38.5 |  |  |
| Cc1[nH]c(=O)n2c(C)nnc2c1C(=O)Nc1cc(Cl)cc(Cl)c1 | 53.2 | > 100 | 41 | 40.8 | > 100 | > 100 | 79.4 | 70.7 µM |  |  |  |  |  |  |  |  |  |  |  |  |
| CC[C@@]1(OC(=O)CN)C(=O)OCc2c1cc1n(c2=O)Cc2cc3c(N)cccc3nc2-1 | 0.405 | 3.32 |  | 3.77 | 0.0497 | 0.0486 |  |  | < 0.01 | 0.211 |  | 0.0749 | 1.43 µM | > 21.5 µM | < 0.01 | < 0.01 | 0.0476 µM | 0.336 | < 0.01 |  |
| Cc1cc(NS(=O)(=O)c2ccc(NC(=O)c3ccc(Cl)c4c(Nc5ccc(S(=O)(=O)N=C(N)N)cc5)c5ccccc5nc34)cc2)no1 | 38.9 | > 100 | > 100 | 83.7 | > 100 | 98.7 | 97.7 | > 100 µM |  |  |  |  |  |  |  |  |  |  |  |  |
| COc1ccc(S(=O)(=O)Nc2cc(/C=C\c3cc(OC)c(OC)c(OC)c3)ccc2OC)cc1 | > 100 | > 100 | > 100 | > 100 | 70.9 | > 100 | > 100 | 38.3 µM | 0.108 | 0.581 | 0.049 | 0.053 | 0.399 µM | > 100 µM | 0.0393 | 0.272 |  |  | 0.041 | 0.0963 |
| O=c1nc(NC(c2ccccc2)(c2ccccc2)c2ccccc2)ccn1CCNCCn1ccc(NC(c2ccccc2)(c2ccccc2)c2ccccc2)nc1=O | 18.8 | 49 | 24.1 | 58.3 | 27.3 | 7.86 | 32.5 | 46.1 µM |  |  |  |  |  |  |  |  |  |  |  |  |
| CNC(=O)CC1NC(=O)c2csc(n2)-c2ccc(-c3nc(C4=NC(C(=O)N5CCCC5C(N)=O)CO4)cs3)nc2-c2csc(n2)-c2csc(n2)C(C(C)C)NC(=O)CNC(=O)c2csc(n2)C(C(C)C)NC(=O)c2nc1sc2C (stereo unspecified) | > 25 | > 25 | > 25 | 0.937 | > 25 | > 25 |  | 6.03 µM and > 25 µM | > 25 | > 25 | > 25 |  | > 25 µM | 2.73 µM and > 25 µM | > 25 | > 25 | < 0.001 µM |  |  | > 25 |
| COc1ccc(/C=C(\C#N)n2nnc3ccccc32)cc1 | > 32.6 | > 82.5 | 19.7 |  | 6.66 | 6.72 | 25.8 | > 40.1 µM | 0.414 | 0.615 | 0.0893 | 0.046 | 0.525 µM | 3.47 µM | 0.205 | 0.548 |  |  | 0.486 | 0.64 |
| Oc1[nH]c2c(Br)cccc2c1C1=Nc2ccccc2/C1=N/OCCN1CCCC1 | 2.77 | 3.35 | 2.45 | 3.45 | 3.69 | 2.45 | 2.65 |  | 1.09 | 1.14 | 0.973 | 1.48 | 1.31 µM and 1.21 µM | 4.95 µM and 7.97 µM | 0.638 | 0.626 | 1.58 µM and 1.91 µM | > 100 | 0.704 |  |
| COc1cc(C(O)C(=O)c2nc3ccc([N+](=O)[O-])cc3[nH]c2=O)ccc1O (stereo unspecified) | > 100 | > 100 | > 100 | > 100 | > 100 | > 100 | > 100 | > 100 µM |  |  |  |  |  |  |  |  |  |  |  |  |
| COC(=O)[C@]12CC=C3O[C@@H]4OC5(CCCCC5)O[C@@H]4C3[C@@H]1C(=O)CCC2=O (stereo partly specified) | > 100 | > 100 | > 100 | > 100 | > 100 | > 100 | > 100 | > 100 µM |  |  |  |  |  |  |  |  |  |  |  |  |
